These results are taken from patent US20260365628A1, “SUBSTITUTED 3,4-DIHYDROQUINOLINONE INHIBITORS OF TSHR” (Septerna, Inc., priority 2022, published 2026).

A value given as a limit tells only on which side of the number the result lay.

T1 sequence (P16473 21-764): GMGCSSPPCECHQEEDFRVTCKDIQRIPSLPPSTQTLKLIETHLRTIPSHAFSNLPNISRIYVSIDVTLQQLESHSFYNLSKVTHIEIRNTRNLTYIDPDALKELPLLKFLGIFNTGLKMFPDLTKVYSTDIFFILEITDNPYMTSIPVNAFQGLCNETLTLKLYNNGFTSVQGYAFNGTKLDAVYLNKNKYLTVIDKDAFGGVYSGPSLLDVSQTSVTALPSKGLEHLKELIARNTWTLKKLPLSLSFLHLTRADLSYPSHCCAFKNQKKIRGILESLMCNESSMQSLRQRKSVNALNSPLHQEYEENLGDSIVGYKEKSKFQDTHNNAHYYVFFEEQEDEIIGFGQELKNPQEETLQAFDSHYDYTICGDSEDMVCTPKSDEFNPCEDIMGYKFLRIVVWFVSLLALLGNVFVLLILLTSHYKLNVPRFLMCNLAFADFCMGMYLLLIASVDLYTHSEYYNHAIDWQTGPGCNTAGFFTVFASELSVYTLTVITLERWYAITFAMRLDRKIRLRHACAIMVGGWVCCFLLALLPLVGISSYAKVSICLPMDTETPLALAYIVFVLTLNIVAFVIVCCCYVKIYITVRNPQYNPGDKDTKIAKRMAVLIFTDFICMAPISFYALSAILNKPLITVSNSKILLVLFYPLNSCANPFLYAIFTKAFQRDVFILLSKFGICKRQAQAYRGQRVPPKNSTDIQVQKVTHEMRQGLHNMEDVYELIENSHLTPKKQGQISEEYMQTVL

This test concerns the target T1, hTSHR (Homo sapiens, UniProt P16473).
T1 construct: expressed in transfected cells
Description: hTSHR TR-FRET cAMP Assay (inhibition of M22-stimulated cAMP production). The class given is cell-based. Particulars: Expi293F Inducible cells stably expressing hTSHR; cAMP HTRF; stimulated with EC80 of anti-TSHR antibody M22; 15 min compound preincubation, 30 min at 37° C.; read-out: Activity (IC50 bins). In short, it runs like this: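 Readout was a cAMP HTRF ratio of 655/620 nm after lysis, scaled between the EC80 M22 signal (0% inhibition) and no-agonist vehicle (100%). Frozen induced Expi293F-hTSHR cells saw test compounds (0.5% DMSO) for 15 min at 37 °C before 30 min of M22 stimulation at EC80.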
Regarding `C[C@H]1Oc2cc(NC(=O)NC(C)(C)C)ccc2N(Cc2cccc(OC(F)(F)F)n2)C1=O` [Example 166, (R)-1-(tert-butyl)-3-(2-methyl-3-oxo-4-((6-(trifluoro-methoxy)pyridin-2-yl)methyl)-3,4-dihydro-2H-benzo [b][1,4]oxazin-7-yl)urea], the IC50 was below 100 nM.
With `C[C@H]1Oc2cc(NC(=O)NC(C)(C)C)ccc2N(Cc2ccnc(C(F)(F)F)n2)C1=O` [Example 167, (R)-1-(tert-butyl)-3-(2-methyl-3-oxo-4-((2-(trifluoro-methyl)pyrimidin-4-yl)methyl)-3,4-dihydro-2H-benzo [b][1,4]oxazin-7-yl)urea], the IC50 was 100 to 1000 nM.
Then `C[C@H]1Oc2cc(NC(=O)NC(C)(C)C)ccc2N(Cc2nc(C(F)(F)F)cs2)C1=O` [Example 168, (R)-1-(tert-butyl)-3-(2-methyl-3-oxo-4-((4-(trifluoro-methyl)thiazol-2-yl)methyl)-3,4-dihydro-2H-benzo [b][1,4]oxazin-7-yl)urea], with 100 to 1000 nM; and `C[C@H]1Oc2cc(NC(=O)NC(C)(C)C)ccc2N(Cc2cncc(C(F)(F)F)n2)C1=O` [Example 169, (R)-1-(tert-butyl)-3-(2-methyl-3-oxo-4-((6-(trifluoro-methyl)pyrazin-2-yl)methyl)-3,4-dihydro-2H-benzo [b][1,4]oxazin-7-yl)urea], with 100 to 1000 nM; and `C[C@H]1Oc2cc(NC(=O)NC(C)(C)C)ccc2N(Cc2nccc(C(F)(F)F)n2)C1=O` [Example 170, (R)-1-(tert-butyl)-3-(2-methyl-3-oxo-4-((4-(trifluoro-methyl)pyrimidin-2-yl)methyl)-3,4-dihydro-2H-benzo [b][1,4]oxazin-7-yl)urea], with 100 to 1000 nM.
For the compound `C[C@H]1Oc2cc(NC(=O)NC(C)(C)C)ccc2N(Cc2cncc(C(F)(F)F)c2)C1=O` [Example 171, (R)-1-(tert-butyl)-3-(2-methyl-3-oxo-4-((5-(trifluoro-methyl)pyridin-3-yl)methyl)-3,4-dihydro-2H-benzo [b][1,4]oxazin-7-yl)urea], the IC50 fell in the range of 100 to 1000 nM.
Take `C[C@H]1Oc2cc(NC(=O)NC(C)(C)C)ccc2N(Cc2cccc(C(O)C(F)(F)F)c2)C1=O` (stereo partly drawn) [Example 172, 1-(tert-butyl)-3-((2R)-2-methyl-3-oxo-4-(3-(2,2,2-trifluoro-1-hydroxy-ethyl)benzyl)-3,4-dihydro-2H-benzo [b][1,4]oxazin-7-yl)urea]: the IC50 is below 100 nM.
As to `C[C@H]1Oc2cc(NC(=O)NC(C)(C)C)ccc2N(Cc2cccc(C(O)C(F)(F)F)n2)C1=O` (stereo partly drawn) [Example 173, 1-(tert-butyl)-3-((2R)-2-methyl-3-oxo-4-((6-(2,2,2-trifluoro-1-hydroxy-ethyl)pyridin-2-yl)methyl)-3,4-dihydro-2H-benzo [b][1,4]oxazin-7-yl)urea], the IC50 fell in the range of 100 to 1000 nM.
Take `C[C@H]1Oc2cc(NC(=O)NC(C)(C)C)ccc2N(Cc2cccc([C@@H](O)C(F)(F)F)c2)C1=O` [Example 174, 1-(tert-butyl)-3-((R)-2-methyl-3-oxo-4-(3-((R)-2,2,2-trifluoro-1-hydroxyethyl)benzyl)-3,4-dihydro-2H-benzo [b][1,4]oxazin-7-yl)urea]: the concentration for half-maximal inhibition (IC50) was in the range of 100 to 1000 nM.
For `C[C@H]1Oc2cc(NC(=O)NC(C)(C)C)ccc2N(Cc2cccc([C@H](O)C(F)(F)F)c2)C1=O` [Example 175, 1-(tert-butyl)-3-((R)-2-methyl-3-oxo-4-(3-((S)-2,2,2-trifluoro-1-hydroxyethyl)benzyl)-3,4-dihydro-2H-benzo [b][1,4]oxazin-7-yl)urea] the value was 100 to 1000 nM.
On to `C[C@H]1Oc2cc(NC(=O)NC(C)(C)C)ccc2N(Cc2cc(Cl)ccc2Cl)C1=O` [Example 176, (R)-1-(tert-butyl)-3-(4-(2,5-dichloro-benzyl)-2-methyl-3-oxo-3,4-dihydro-2H-benzo [b][1,4]oxazin-7-yl)urea], for which the IC50 is below 100 nM.
Take `C[C@H]1Oc2cc(NC(=O)NC(C)(C)C)ccc2N(Cc2cc(F)ccc2F)C1=O` [Example 177, (R)-1-(tert-butyl)-3-(4-(2,5-difluoro-benzyl)-2-methyl-3-oxo-3,4-dihydro-2H-benzo [b][1,4]oxazin-7-yl)urea]: the IC50 was below 100 nM.
Turning to `C[C@H]1Oc2cc(NC(=O)NC(C)(C)C)ccc2N(Cc2ccccc2Cl)C1=O` [Example 178, (R)-1-(tert-butyl)-3-(4-(2-chloro-benzyl)-2-methyl-3-oxo-3,4-dihydro-2H-benzo [b][1,4]oxazin-7-yl)urea], the IC50 fell in the range of 100 to 1000 nM.
Then `Cc1nc2cc(NC(=O)NC(C)(C)C)ccc2n([C@@H](C)c2ccccc2)c1=O` [Example 179, 3-tert-butyl-1-{3-methyl-2-oxo-1-[(1S)-1-phenylethyl]quinoxalin-6-yl}urea], with 100 to 1000 nM; and `Cc1nc2cc(NC(=O)NC(C)(C)C)ccc2n([C@@H](C)c2cccc(Cl)c2)c1=O` [Example 180, (S)-1-(tert-butyl)-3-(1-(1-(3-chlorophenyl)ethyl)-3-methyl-2-oxo-1,2-dihydroquinoxalin-6-yl)urea], with 100 to 1000 nM; and `Cc1nc2cc(NC(=O)NC(C)(C)C)ccc2n([C@@H](C)c2cccc(C(F)(F)F)c2)c1=O` [Example 181, (S)-1-(tert-butyl)-3-(3-methyl-2-oxo-1-(1-(3-(trifluoromethyl)phenyl)ethyl)-1,2-dihydroquinoxalin-6-yl)urea], with 100 to 1000 nM.
Consider `Cc1nc2cc(NC(=O)NC(C)(C)C)ccc2n([C@@H](C)c2cccc(OC(F)(F)F)c2)c1=O` [Example 182, (S)-1-(tert-butyl)-3-(3-methyl-2-oxo-1-(1-(3-(trifluoromethoxy)phenyl)ethyl)-1,2-dihydroquinoxalin-6-yl)urea], for which the IC50 was 100 to 1000 nM.
For `C[C@H]1Oc2cc(NC(=O)NC(C)(C)C)ccc2N([C@@H](C)c2cccc(Cl)c2)C1=O` [Example 183, 1-(tert-butyl)-3-((R)-4-((S)-1-(3-chlorophenyl)ethyl)-2-methyl-3-oxo-3,4-dihydro-2H-benzo[b][1,4]oxazin-7-yl)urea] the value was below 100 nM; for `C[C@H]1Oc2cc(NC(=O)NC(C)(C)C)ccc2N([C@@H](C)c2cccc(OC(F)(F)F)c2)C1=O` [Example 184, 1-(tert-butyl)-3-((R)-2-methyl-3-oxo-4-((S)-1-(3-(trifluoromethoxy)phenyl)ethyl)-3,4-dihydro-2H-benzo[b][1,4]oxazin-7-yl)urea], 100 to 1000 nM; for `C[C@H]1Oc2cc(NC(=O)NC(C)(C)C)ccc2N([C@@H](C)c2cccc(C(F)F)c2)C1=O` [Example 185, 1-(tert-butyl)-3-((R)-4-((S)-1-(3-(difluoromethyl)phenyl)ethyl)-2-methyl-3-oxo-3,4-dihydro-2H-benzo[b][1,4]oxazin-7-yl)urea], below 100 nM.
In the case of `C[C@H]1Oc2cc(NC(=O)NC(C)(C)C)ccc2N([C@@H](C)c2cccc(C(F)(F)F)n2)C1=O` [Example 186, 1-(tert-butyl)-3-((R)-2-methyl-3-oxo-4-((S)-1-(6-(trifluoromethyl)pyridin-2-yl)ethyl)-3,4-dihydro-2H-benzo[b][1,4]oxazin-7-yl)urea], the IC50 was below 100 nM.
For `COc1cccc([C@H](C)N2C(=O)[C@@H](C)Oc3cc(NC(=O)NC(C)(C)C)ccc32)c1` [Example 187, 1-(tert-butyl)-3-((R)-4-((S)-1-(3-methoxyphenyl)ethyl)-2-methyl-3-oxo-3,4-dihydro-2H-benzo[b][1,4]oxazin-7-yl)urea] the value was 100 to 1000 nM; for `C[C@H]1Oc2cc(NC(=O)NC(C)(C)C)ccc2N([C@@H](C)c2cc(F)ccc2F)C1=O` [Example 188, 1-(tert-butyl)-3-((R)-4-((S)-1-(2,5-difluorophenyl)ethyl)-2-methyl-3-oxo-3,4-dihydro-2H-benzo[b][1,4]oxazin-7-yl)urea], below 100 nM.
On to `C[C@H]1Oc2cc(NC(=O)NC(C)(C)C)ccc2N([C@@H](C)c2ccccc2Cl)C1=O` [Example 189, 1-(tert-butyl)-3-((R)-4-((S)-1-(2-chlorophenyl)ethyl)-2-methyl-3-oxo-3,4-dihydro-2H-benzo[b][1,4]oxazin-7-yl)urea], for which the IC50 was below 100 nM.
For `C[C@H]1Oc2cc(NC(=O)NC(C)(C)C)ccc2N([C@@H](C)c2cc(Cl)ccc2Cl)C1=O` [Example 190, 1-(tert-butyl)-3-((R)-4-((S)-1-(2,5-dichlorophenyl)ethyl)-2-methyl-3-oxo-3,4-dihydro-2H-benzo[b][1,4]oxazin-7-yl)urea], the IC50 was 100 to 1000 nM.
For `CC1(NC(=O)Nc2ccc3c(c2)ncc(=O)n3Cc2ccccc2)CCC1` [Example 191, 1-(1-benzyl-2-oxo-1,2-dihydroquinoxalin-6-yl)-3-(1-methylcyclobutyl)urea] the value was 100 to 1000 nM; for `CC1(C)CN(C(=O)Nc2ccc3c(c2)ncc(=O)n3Cc2ccccc2)C1` [Example 192, N-(1-benzyl-2-oxo-1,2-dihydroquinoxalin-6-yl)-3,3-dimethylazetidine-1-carboxamide], above 1000 nM.
As for `CC1(NC(=O)Nc2ccc3c(c2)ncc(=O)n3Cc2ccccc2)CCCC1` [Example 193, 1-(1-benzyl-2-oxo-1,2-dihydroquinoxalin-6-yl)-3-(1-methylcyclopentyl) urea], the IC50 was in the range of 100 to 1000 nM.
`CC1(C)CCN(C(=O)Nc2ccc3c(c2)ncc(=O)n3Cc2ccccc2)C1` [Example 194, N-(1-benzyl-2-oxo-1,2-dihydroquinoxalin-6-yl)-3,3-dimethylpyrrolidine-1-carboxamide]: the IC50 was above 1000 nM.
For the compound `CC(C)(CF)NC(=O)Nc1ccc2c(c1)ncc(=O)n2Cc1ccccc1` [Example 195, 1-(1-benzyl-2-oxo-1,2-dihydroquinoxalin-6-yl)-3-(1-fluoro-2-methylpropan-2-yl)urea], the IC50 was above 1000 nM.
As to `O=C(Nc1ccc2c(c1)ncc(=O)n2Cc1ccccc1)NC1CCCC1` [Example 196, 1-(1-benzyl-2-oxo-1,2-dihydroquinoxalin-6-yl)-3-cyclopentylurea], the IC50 is above 1000 nM.

One may read the IC50 as the concentration that gives 50% inhibition.
